{
  "source": "paper PMC7363723",
  "about": "“Fungal Kti12 proteins display unusual linker regions and unique ATPase p-loops” (Current Genetics, 2020)",
  "format_in_all_cases": "binding",
  "key": {"[1]": {"biological_target": "T1, CtKti12 (Thermochaetoides thermophila, UniProt G0SHI1)", "T1 construct": "gene CTHT_0070100; full-length, codon-optimized ORF in pET24d (NcoI/XhoI), purified from bacteria; PDB 6QP0 (earlier work) covers the ATPase domain only", "T1 sequence (G0SHI1 1-378)": "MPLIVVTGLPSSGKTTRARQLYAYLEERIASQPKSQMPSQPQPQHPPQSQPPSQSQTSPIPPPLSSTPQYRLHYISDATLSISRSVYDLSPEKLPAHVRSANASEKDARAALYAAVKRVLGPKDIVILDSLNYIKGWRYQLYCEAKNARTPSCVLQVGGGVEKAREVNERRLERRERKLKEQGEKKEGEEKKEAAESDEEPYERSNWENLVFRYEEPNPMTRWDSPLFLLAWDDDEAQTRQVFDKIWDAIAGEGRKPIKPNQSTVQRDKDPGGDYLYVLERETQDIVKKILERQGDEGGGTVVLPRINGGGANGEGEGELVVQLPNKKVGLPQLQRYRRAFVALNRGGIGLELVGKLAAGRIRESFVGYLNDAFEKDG", "experiment": "thermal shift assay (SYPRO Orange)", "conditions": "1 mM ATP, 2 mM MgCl2, 20 mM Tris-HCl pH 7.5, 150 mM NaCl, 2 mM DTT; 0.6 °C/min"}, "[2]": {"biological_target": "T2, CtKti12 (Thermochaetoides thermophila, UniProt G0SHI1, K14V)", "T2 construct": "gene CTHT_0070100; full-length, codon-optimized ORF in pET24d (NcoI/XhoI), purified from bacteria; PDB 6QP0 (earlier work) covers the ATPase domain only", "T2 sequence (G0SHI1 entry or part of it K14V)": "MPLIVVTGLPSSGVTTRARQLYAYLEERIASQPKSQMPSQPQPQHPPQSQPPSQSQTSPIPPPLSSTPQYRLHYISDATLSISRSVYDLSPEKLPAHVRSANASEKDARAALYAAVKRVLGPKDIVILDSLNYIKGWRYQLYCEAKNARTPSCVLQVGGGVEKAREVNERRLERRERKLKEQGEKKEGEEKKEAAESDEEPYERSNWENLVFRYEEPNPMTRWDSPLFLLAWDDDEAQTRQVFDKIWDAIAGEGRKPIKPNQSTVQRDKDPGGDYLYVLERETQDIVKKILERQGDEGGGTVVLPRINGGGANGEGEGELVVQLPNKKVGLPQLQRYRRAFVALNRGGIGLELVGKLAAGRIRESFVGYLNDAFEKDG", "experiment": "fluorescence polarization, one-site fit"}, "[3]": {"biological_target": "T3, CtKti12 (Thermochaetoides thermophila, UniProt G0SHI1, K14L)", "T3 construct": "gene CTHT_0070100; full-length, codon-optimized ORF in pET24d (NcoI/XhoI), purified from bacteria; PDB 6QP0 (earlier work) covers the ATPase domain only", "T3 sequence (G0SHI1 entry or part of it K14L)": "as the sequence (G0SHI1 entry or part of it K14V) above, with V14L counted along it", "experiment": "fluorescence polarization, one-site fit"}, "[4]": {"biological_target": "T4, CtKti12 (Thermochaetoides thermophila, UniProt G0SHI1, K14A)", "T4 construct": "gene CTHT_0070100; full-length, codon-optimized ORF in pET24d (NcoI/XhoI), purified from bacteria; PDB 6QP0 (earlier work) covers the ATPase domain only", "T4 sequence (G0SHI1 entry or part of it K14A)": "as the sequence (G0SHI1 entry or part of it K14V) above, with V14A counted along it", "experiment": "fluorescence polarization, one-site fit"}, "[5]": {"biological_target": "T1, CtKti12", "experiment": "fluorescence polarization, one-site fit"}},
  "data": [
    {"compound": "Nc1ncnc2c1ncn2[C@@H]1O[C@H](COP(=O)(O)OP(=O)(O)OP(=O)(O)O)[C@@H](O)[C@H]1O", "note": "[ATP]", "values": [
      {"measurement": "melting point without ATP to with ATP", "setting": "[1]", "result": "46.0 to 50.0", "unit": "°C"}
    ]},
    {"compound": "CNc1ccccc1C(=O)O[C@H]1[C@@H](O)[C@H](n2cnc3c(N)ncnc32)O[C@@H]1CO[P@@](=O)(O)O[P@](=O)(O)OP(=O)(O)O", "note": "[MANT-ATP]", "values": [
      {"measurement": "Kd", "setting": "[2]", "result": "> 100", "unit": "µM"},
      {"measurement": "Kd", "setting": "[3]", "result": "25 ± 2.4", "unit": "µM"},
      {"measurement": "Kd", "setting": "[4]", "result": "> 100", "unit": "µM"},
      {"measurement": "Kd", "setting": "[5]", "result": "1.5 ± 0.2", "unit": "µM"}
    ]}
  ]
}
